From patent US20060281695A1, “Control of parasites in animals by N-[(phenyloxy)phenyl]-1,1,1-trifluoromethanesulfonamide and N-[(phenylsulfanyl)phenyl]-1,1,1-trifluoromethanesulfonamide derivatives” (priority 2005, published 2006)

Key:
[1] = tested on: cat flea (Ctenocephalides felis); test: Ctenocephalides felis adulticide assay: single dose screen on treated glass surface (% mortality at 1.26 μg/cm^2, 24 hours); format: in vivo; conditions: for mortality at 1.26 µg/cm2, 1.26 µg/cm2: Ctenocephalides felis, 24 h, read-out: Ctenocephalides felis Mortality (%) 24 h
Experimental: The LC50 value is the concentration, expressed as μg/cm^2, that was required to kill 50% of the sample of cat fleas on contact with the tested compound. Certain tests are also reported as the percent of a sample of cat fleas that were killed at a concentration of 1.26 μg/cm^2 (“% mortality”), for the compounds tested in this way.
b) Ctenocephalides felis Adulticide Assay: C.felis single dose screen
Mortality of fleas is the primary endpoint in the assay. […] The concentration chosen (1.26 μg/cm^2) is higher than that known to kill 90% of cat fleas (LC90) using the reference compound, permethrin.
The test species employed was the cat flea (Ctenocephalides felis). The strain used was obtained from external suppliers as pupae and held in the laboratory under testing conditions until the adults had emerged. Fifteen (15) fleas were used in a minimum of four replicates against a single concentration level (approximately 60 fleas). The insects were selected to be in the adult life stage, aged between 3 and 7 days post emergence.
The compounds to be tested were supplied as solids and were prepared in acetone as described below prior to testing. Samples were stored in a refrigerator (5±1° C.) unless otherwise specified.
During the mortality testing, the temperature was maintained at 25±1° C. Humidity was maintained at 75±5%. The base (area=159 mm^2) of a 100 mL glass Erlenmeyer (conical) flask provided the treatment surface. Flasks were pre-treated with Coatasil™ glass treatment to maximise bio-availability of test compounds by preventing them from binding to glass the surface. The base of the 100 mL Erlenmeyer flask was treated with 0.5 mL of test sample in acetone and gently swirled. This volume was sufficient to cover the base of the flask. Flasks were left to dry for 24 hours before flea exposure.
Adult cat fleas were placed into a sorting chamber, which allowed fleas to jump into the Erlenmeyer flasks. Fifteen (15) adult cat fleas were collected in each flask. The top of the flasks were then covered in Parafilm™ and small holes were made to allow gas exchange. A 0.5 mL volume of acetone as a solvent control was applied to the base of an Erlenmeyer flask and the testing proceeded in the same manner described above. […] Pooled 24 hour mortality data were converted to percentages and are summarized by Table 4, below.
(§1) In Table 7, provided below, are listed the Haemonchus contortus LD99 values (measured in micrograms/mL), the Ctenocephalides felis rapid screening values (measured in % mortality), the Ctenocephalides felis LC50 values (measured in micrograms/cm^2) and the Rhipicephalus sanguineus rapid screening values (measured in % mortality) for selected compounds in accordance with the present invention.

Haemonchus contortus = Haemonchus contortus larvacidal (larval development) assay, LD99; format: in vitro
Experimental: The LD99 value is the dose, expressed as […], that was required to kill 99% of a sample of Haemonchus contortus.
a) Haemonchus Contortus Larvacidal Assay:
The effect of compounds on larval development was determined in the assay described by Gill et al. [International Journal of Parasitology 25:463-470 (1995)]. Briefly, in this assay, nematode eggs are applied to the surface of an agar matrix containing the test compound and then allowed to develop through to the L3, infective stage (6 days). The wells for each dilution of every compound (from highest to lowest concentration) are inspected to determine the well number corresponding to the lowest concentration at which development is inhibited in 99% of the nematode larvae present (LD99). Because well numbers correspond to a two-fold serial dilution of each compound, a titre (dilution factor) is generated as 2^n−1, where n is the well number. By dividing the highest concentration tested by the titre an LD99 value can be obtained, representing the concentration required to inhibit development in 99% of the nematode larvae present. The compounds supplied as solid and viscous liquids are dissolved in DMSO. Twelve serial one-half dilutions in DMSO solution are prepared from the stock solution, each of which is then diluted 1/5 with water. Aliquots (10 μl) of each dilution are transferred to the bioassay plates to give a final concentration range of 0.024 to 50 μg/ml.
as §1

Row | Structure (SMILES) | Ctenocephalides felis Mortality (%) 24 h ([1]; in vivo) [%] | also measured
1 | CC(C)(C)c1ccc(Oc2cc(Cl)ccc2NS(=O)(=O)C(F)(F)F)cc1 [Compound 3] | 58 | Haemonchus contortus LD99 (Haemonchus contortus): 7.0 µg/mL
2 | O=S(=O)(Nc1ccc(Cl)cc1Oc1ccccc1Cl)C(F)(F)F [Compound 6] | 74 | Haemonchus contortus LD99 (Haemonchus contortus): 15.0 µg/mL
3 | O=S(=O)(Nc1ccc(Cl)cc1Oc1ccc(Cl)c(Cl)c1)C(F)(F)F [Compound 7] | – | Ctenocephalides felis Mortality (%) 24 h ([1]; adult cat fleas, single dose screen on treated glass surface, mortality at 24 h): 22%; Haemonchus contortus LD99 (Haemonchus contortus): 1.63 µg/mL
4 | O=S(=O)(Nc1ccc(Cl)cc1[S+]([O-])c1ccc(Cl)cc1)C(F)(F)F (stereo not drawn) [Compound 23, N-[4-chloro-2-(4-(chlorophenyl)sulfinyl)phenyl]-1,1,1-trifluoromethanesulfonamide] | 3 | –
5 | CC(C)c1ccccc1Oc1cc(Cl)ccc1NS(=O)(=O)C(F)(F)F [Compound 39] | 75 | –
6 | O=S(=O)(Nc1ccc(Cl)cc1Oc1ccccc1)C(F)(F)F [Compound 40] | 39 | –
7 | CC(C)(C)c1ccccc1Oc1cc(Cl)ccc1NS(=O)(=O)C(F)(F)F [Compound 42] | 88 | –
8 | O=S(=O)(Nc1ccc(Cl)cc1Oc1ccc(Oc2ccccc2)cc1)C(F)(F)F [Compound 47] | 36 | –
9 | COc1ccc(Oc2cc(Cl)ccc2NS(=O)(=O)C(F)(F)F)cc1 [Compound 49] | 24 | –
10 | N#Cc1cccc(Oc2cc(Cl)ccc2NS(=O)(=O)C(F)(F)F)c1 [Compound 50] | 14 | –
11 | N#Cc1ccc(NS(=O)(=O)C(F)(F)F)c(Oc2ccc(Cl)cc2)c1 [Compound 51] | 10 | –
12 | N#Cc1ccc(NS(=O)(=O)C(F)(F)F)c(Oc2ccc(Cl)cc2Cl)c1 [Compound 52] | 23 | –
13 | N#Cc1ccc(NS(=O)(=O)C(F)(F)F)c(Oc2ccccc2F)c1 [Compound 53] | 9 | –
14 | Cc1ccccc1Oc1cc(C#N)ccc1NS(=O)(=O)C(F)(F)F [Compound 54] | 5 | –
15 | N#Cc1ccc(Oc2cc(Cl)ccc2NS(=O)(=O)C(F)(F)F)cc1 [Compound 56] | 6 | –
16 | N#Cc1ccc(NS(=O)(=O)C(F)(F)F)c(Oc2ccc(F)c(F)c2)c1 [Compound 57] | 2 | –
17 | COc1cccc(Oc2cc(Cl)ccc2NS(=O)(=O)C(F)(F)F)c1 [Compound 58] | 87 | –
18 | N#Cc1ccc(NS(=O)(=O)C(F)(F)F)c(Oc2cccc(C(F)(F)F)c2)c1 [Compound 60] | 5 | –
19 | O=S(=O)(Nc1ccc(Cl)cc1Sc1ccccc1Cl)C(F)(F)F [Compound 62] | 25 | –
20 | O=S(=O)(Nc1cc(C(F)(F)F)ccc1Sc1ccccc1)C(F)(F)F [Compound 63] | 10 | –
21 | O=S(=O)(Nc1cc(C(F)(F)F)ccc1Sc1ccccc1Cl)C(F)(F)F [Compound 64] | 14 | –
22 | O=S(=O)(Nc1cc(C(F)(F)F)ccc1Sc1ccc(F)cc1)C(F)(F)F [Compound 65] | 21 | –
23 | O=S(=O)(Nc1cc(C(F)(F)F)ccc1Sc1ccccc1F)C(F)(F)F [Compound 66] | 20 | –
24 | O=S(=O)(Nc1cc(C(F)(F)F)ccc1Sc1ccc(Br)cc1)C(F)(F)F [Compound 67] | 5 | –
25 | O=S(=O)(Nc1ccc(Cl)cc1Oc1cc(Cl)ccc1Cl)C(F)(F)F [Compound 69] | 58 | –
26 | O=S(=O)(Nc1ccc(Cl)cc1Oc1ccccc1-c1ccccc1)C(F)(F)F [Compound 74, N-[2-(Biphenyl-2-yloxy)-4-chlorophenyl]-1,1,1-trifluoromethanesulfonamide] | – | mortality at 1.26 µg/cm2, 1.26 µg/cm2 [1]: 81%

Row | Structure (SMILES) | Ctenocephalides felis Mortality (%) 24 h ([1]; in vivo) [%] | also measured
27 | CCN(c1ccc(Cl)cc1Oc1ccc(Cl)cc1Cl)S(=O)(=O)C(F)(F)F [Compound 76] | 3 | –
28 | CN(c1ccc(Cl)cc1Oc1ccccc1F)S(=O)(=O)C(F)(F)F [Compound 77] | 20 | –
29 | CCN(c1ccc(Cl)cc1Oc1ccccc1F)S(=O)(=O)C(F)(F)F [Compound 78] | 80 | –
30 | COCN(c1ccc(Cl)cc1Oc1ccccc1F)S(=O)(=O)C(F)(F)F [Compound 79] | 60 | –
31 | CCOCN(c1ccc(Cl)cc1Oc1ccccc1F)S(=O)(=O)C(F)(F)F [Compound 80] | 9 | –
32 | O=S(=O)(N(Cc1ccccc1)c1ccc(Cl)cc1Oc1ccccc1F)C(F)(F)F [Compound 81] | 1 | –
33 | CC(C)N(c1ccc(Cl)cc1Oc1ccc(Cl)cc1Cl)S(=O)(=O)C(F)(F)F [Compound 86] | 66 | –
34 | CC(C)N(c1ccc(Cl)cc1Oc1ccccc1F)S(=O)(=O)C(F)(F)F [Compound 87] | 24 | –
35 | CC(C)(C)C(=O)OCN(c1ccc(Cl)cc1Oc1ccccc1F)S(=O)(=O)C(F)(F)F [Compound 88] | 73 | –
36 | CCCC(=O)OCN(c1ccc(Cl)cc1Oc1ccccc1F)S(=O)(=O)C(F)(F)F [Compound 89] | 6 | –
37 | O=S(=O)(Nc1ccc(Cl)cc1Nc1ccc(Cl)cc1)C(F)(F)F [Compound 91, N-[4-Chloro-2-(4-chlorophenylamino)-phenyl]-1,1,1-trifluoromethanesulphonamide] | – | mortality at 1.26 µg/cm2, 1.26 µg/cm2 [1]: 13%
38 | O=S(=O)(N(Cc1ccccc1)c1ccc(Cl)cc1Oc1ccc(Cl)cc1Cl)C(F)(F)F [Compound 92, N-benzyl-N-[4-chloro-2-(2,4-dichlorophenoxy)phenyl]-1,1,1-trifluoromethanesulfonamide] | – | mortality at 1.26 µg/cm2, 1.26 µg/cm2 [1]: 57%
39 | O=S(=O)(Nc1cccc(Oc2ccc(Cl)cc2Cl)c1)C(F)(F)F [Compound m6, N-[3-(2,4-dichlorophenoxy)phenyl]-1,1,1-trifuoromethanesulfonamide] | 34 | –
40 | CCOCN(c1cccc(Oc2ccc(Cl)cc2Cl)c1)S(=O)(=O)C(F)(F)F [Compound m7, N-Ethoxymethyl-N-[3-(2,4-dichlorophenoxy)phenyl]-1,1,1-trifluoromethanesulfonamide] | – | mortality at 1.26 µg/cm2, 1.26 µg/cm2 [1]: 5%
41 | O=S(=O)(Nc1ccc(Oc2ccc(Cl)cc2Cl)c(Cl)c1)C(F)(F)F [Compound p7, N-[3-Chloro-4-(2,4-dichlorophenoxy)phenyl]-1,1,1-trifluoromethanesulfonamide] | – | mortality at 1.26 µg/cm2, 1.26 µg/cm2 [1]: 22%
42 | CN(c1cccc(Oc2ccccc2)c1)S(=O)(=O)C(F)(F)F [m2] | 88 | –
43 | CC(C)(C)C(=O)OCN(c1cccc(Oc2ccccc2)c1)S(=O)(=O)C(F)(F)F [m5] | 72 | –
44 | O=S(=O)(Nc1ccc(Oc2ccccc2)cc1)C(F)(F)F [p1] | 84 | –
45 | CN(c1ccc(Oc2ccccc2)cc1)S(=O)(=O)C(F)(F)F [p2] | 64 | –
46 | CCOCN(c1ccc(Oc2ccccc2)cc1)S(=O)(=O)C(F)(F)F [p3] | 72 | –
47 | COCN(c1ccc(Oc2ccccc2)cc1)S(=O)(=O)C(F)(F)F [p4] | 49 | –
48 | CC(C)(C)C(=O)OCN(c1ccc(Oc2ccccc2)cc1)S(=O)(=O)C(F)(F)F [p5] | 54 | –
49 | O=S(=O)(Nc1ccc(Oc2ccc(Cl)cc2Cl)cc1C(F)(F)F)C(F)(F)F [p6] | 28 | –
50 | O=S(=O)(Nc1ccc(Oc2ccc(Cl)cc2Cl)c(F)c1)C(F)(F)F [p8] | 4 | –
51 | O=S(=O)(Nc1ccc(Oc2ccc(Cl)cc2Cl)c(C(F)(F)F)c1)C(F)(F)F [p9] | 44 | –
